Experimental data reported in ChEMBL document CHEMBL1141068, “Synthesis and antibacterial activity of 2,4,6-tri substituted s-triazines” (2005).
In brackets after ≈: the same amount, converted by molar mass.

Legend:
Bacillus sp. [1] = assay: Minimum inhibitory concentration against Bacillus sphaericus (Gram-positive) was determined by broth dilution method; type: functional, Lysinibacillus sphaericus; conditions: Bacillus sp. (in: firmicutes)
Bacillus subtilis = assay: Minimum inhibitory concentration against Bacillus subtilis (Gram-positive) was determined by broth dilution method; type: functional
Staphylococcus aureus = assay: Minimum inhibitory concentration against Staphylococcus aureus (Gram-positive) was determined by broth dilution method; type: functional
[2] = Minimum inhibitory concentration against Chromobacterium violaceum (Gram-negative) was determined by broth dilution method; type: functional
Klebsiella aerogenes = assay: Minimum inhibitory concentration against Klebsiella aerogenes (Gram-negative) in broth; type: functional
Bacillus sp. [3] = assay: Minimum inhibitory concentration against Bacillus sphaericus (Gram-positive) in broth; type: functional, Lysinibacillus sphaericus; conditions: Bacillus sp. (in: firmicutes)
Pseudomonas aeruginosa = assay: Minimum inhibitory concentration against Pseudomonas aeruginosa (Gram-negative) by broth dilution method; type: functional

Row | MIC (Bacillus sp. [1]) [µg/mL] | MIC (Bacillus subtilis) [µg/mL] | MIC (Staphylococcus aureus) [µg/mL] | MIC [2] [µg/mL] | MIC (Klebsiella aerogenes) [µg/mL] | MIC (Bacillus sp. [3]) [µg/mL] | Compound | MIC (Pseudomonas aeruginosa) [µg/mL]
1 | 25 (≈ 63.1 µM) | 25 (≈ 63.1 µM) | 25 (≈ 63.1 µM) | 25 (≈ 63.1 µM) | 25 (≈ 63.1 µM) |  | c1ccc(CNc2nc(NCc3ccccc3)nc(NCc3ccccc3)n2)cc1 | 
2 | 50 (≈ 114 µM) |  |  |  |  |  | Cc1ccc(CNc2nc(NCc3ccc(C)cc3)nc(NCc3ccc(C)cc3)n2)cc1 | 
3 | 6.25 (≈ 17.8 µM) | 12.5 (≈ 35.6 µM) | 12.5 (≈ 35.6 µM) | 6.25 (≈ 17.8 µM) | 6.25 (≈ 17.8 µM) |  | c1ccc(Cc2nc(Cc3ccccc3)nc(Cc3ccccc3)n2)cc1 | 
4 | 12.5 (≈ 25.7 µM) | 25 (≈ 51.4 µM) | 25 (≈ 51.4 µM) | 25 (≈ 51.4 µM) | 25 (≈ 51.4 µM) |  | COc1ccc(CNc2nc(NCc3ccc(OC)cc3)nc(NCc3ccc(OC)cc3)n2)cc1 | 
5 | 12.5 (≈ 28.3 µM) | 50 (≈ 113 µM) | 25 (≈ 56.6 µM) | 25 (≈ 56.6 µM) | 25 (≈ 56.6 µM) |  | COc1ccc(Cc2nc(Cc3ccc(OC)cc3)nc(Cc3ccc(OC)cc3)n2)cc1 | 
6 | 12.5 (≈ 27.6 µM) | 25 (≈ 55.1 µM) | 25 (≈ 55.1 µM) | 12.5 (≈ 27.6 µM) | 25 (≈ 55.1 µM) |  | Fc1ccc(COc2nc(OCc3ccc(F)cc3)nc(OCc3ccc(F)cc3)n2)cc1 | 
7 | 25 (≈ 62.6 µM) | 25 (≈ 62.6 µM) | 25 (≈ 62.6 µM) | 25 (≈ 62.6 µM) |  |  | c1ccc(COc2nc(OCc3ccccc3)nc(OCc3ccccc3)n2)cc1 | 
8 | 25 (≈ 50 µM) |  |  | 25 (≈ 50 µM) |  |  | Clc1ccc(CNc2nc(NCc3ccc(Cl)cc3)nc(NCc3ccc(Cl)cc3)n2)cc1 | 
9 | 12.5 (≈ 24.9 µM) | 12.5 (≈ 24.9 µM) | 12.5 (≈ 24.9 µM) | 25 (≈ 49.7 µM) | 25 (≈ 49.7 µM) |  | Clc1ccc(COc2nc(OCc3ccc(Cl)cc3)nc(OCc3ccc(Cl)cc3)n2)cc1 | 
10 |  |  |  |  |  | 50 (≈ 111 µM) | Fc1ccc(CNc2nc(NCc3ccc(F)cc3)nc(NCc3ccc(F)cc3)n2)cc1 | 
11 | 25 (≈ 51.1 µM) | 25 (≈ 51.1 µM) | 25 (≈ 51.1 µM) | 6.25 (≈ 12.8 µM) | 25 (≈ 51.1 µM) |  | COc1ccc(COc2nc(OCc3ccc(OC)cc3)nc(OCc3ccc(OC)cc3)n2)cc1 | 
12 | 25 (≈ 55 µM) | 25 (≈ 55 µM) | 25 (≈ 55 µM) | 25 (≈ 55 µM) | 25 (≈ 55 µM) |  | Clc1ccc(Cc2nc(Cc3ccc(Cl)cc3)nc(Cc3ccc(Cl)cc3)n2)cc1 | 

Row | Compound | MIC (Bacillus sp. [1]) [µg/mL] | MIC (Bacillus subtilis) [µg/mL] | MIC (Staphylococcus aureus) [µg/mL] | MIC [2] [µg/mL] | MIC (Klebsiella aerogenes) [µg/mL] | MIC (Bacillus sp. [3]) [µg/mL] | MIC (Pseudomonas aeruginosa) [µg/mL]
13 | CC1(C)S[C@@H]2[C@H](NC(=O)Cc3ccccc3)C(=O)N2C1C(=O)O (single isomer, unassigned) [PENICILLIN G] | 3.12 (≈ 9.35 µM) | 1.56 (≈ 4.67 µM) | 1.56 (≈ 4.67 µM) | 12.5 (≈ 37.4 µM) | 6.25 (≈ 18.7 µM) |  | 12.5 (≈ 37.4 µM)
14 | CN[C@@H]1[C@H](O[C@H]2[C@H](O[C@H]3[C@H](O)[C@@H](O)[C@H](N=C(N)N)[C@@H](O)[C@@H]3N=C(N)N)O[C@@H](C)[C@]2(O)C=O)O[C@@H](CO)[C@H](O)[C@H]1O [STREPTOMYCIN] | 12.5 (≈ 21.5 µM) | 6.25 (≈ 10.7 µM) | 6.25 (≈ 10.7 µM) | 3.12 (≈ 5.37 µM) | 1.56 (≈ 2.69 µM) |  | 3.12 (≈ 5.37 µM)
